The subject of one series is MCF-7. Nature of the series: In vitro cytotoxicity (SRB method), MCF-7. The conditions noted are these: MCF-7, mean ± SD, n = 3-4. The class given is cell-based. From the text:
(§1) Since the anticancer agent paclitaxel is well known to be clinically very efficacious against many different cancers, breast (MCF-7), ovarian (SK-OV3), non-small cell lung (A549) and stomach (SNU638) cancer cell lines were selected to test their in vitro cytotoxicity according to the literature method (SRB method) (Rita Song, et. al, J. Control. Release 105 (2005) 142-150).
On the technique in general: Sulforhodamine B stains cellular protein and so reports cell mass.

Another series deals with SK-Ov3. Nature of the series: In vitro cytotoxicity (SRB method), SK-Ov3. Type of series: cell-based. The following applies: SK-Ov3, mean ± SD, n = 3-4.
Excerpt: as §1

For the next series, the system named is A-549. Nature of the series: In vitro cytotoxicity (SRB method), A-549. The class given is cell-based. The following applies: A-549, mean ± SD, n = 3-4.
Excerpt: as §1

The subject of a further series is SNU-638. Description: In vitro cytotoxicity (SRB method), SNU-638. The class given is cell-based. The following applies: SNU-638, mean ± SD, n = 3-4.
Excerpt: as §1

Series [1] in a line: Critical micelle concentration by pyrene fluorescence method. The class given is physicochemical. The following applies: aqueous pyrene solution 6×10^−7 M. How it is done:
As above-mentioned, the polyphosphazene-docetaxel conjugate of the present invention forms polymeric micelles in aqueous solution. In order for such polymer-drug conjugate to be clinically useful for IV injection, the solution stability of the micelles self-assembled from the polymer-drug conjugate is critical. Such a micelle stability is expressed as “critical micelle concentration (CMC),” which is measured by several methods, but the most widely used method is “pyrene fluorescence method” (K. Kalyanasundoram, et. al, J. Am. Chem. Soc. […], 99, 2039). According to the method the CMC value of the polyphosphazene-docetaxel conjugate of the present invention was measured as in the following:
An aqueous pyrene solution (6×10^−7 M) was prepared and using this solution a series of sample solutions of the polyphosphazene-paclitaxel conjugate of Example 20 was prepared in the concentration range of 5.0-0.0005% (w/w). Fluorescence spectra were measured at 339 nm (Iex) and 390 nm (Iem) and then from the ratio of the fluorescence intensities of band I and band III, the value of CMC was determined as shown in FIG. 4.

Series [2] can be described thus: Biodegradability in buffer at 37° C. followed by GPC. The class given is physicochemical. The following applies: buffer pH 5.4, 37° C. How it is done:
Instrument: Yonglin GPC system
Column: Waters Hydrogel HR column (1×guard, 1×linear, 2×HR2)
Eluent: water/acetonitrile (8:2) (0.5% NaNO3)
Two sample solutions were prepared by dissolving the polyphosphazene-paclitaxel conjugate of Example 20 (250 mg) in a buffer solution (5 ml) at pH=5.4 and in another buffer solution (5 ml) at pH=7.4. The two sample solutions were slowly shaken at 37° C. in a water bath and 500 μl of the sample solution was taken at predetermined schedule (0.5, 1, 2, 4, 6, 8, 16 day after incubation) and freeze-dried. The dried samples were dissolved in tetrahydrofuran involving 0.2% t-butyl ammonium bromide and subjected to gel permeation chromatography (GPC).

The subject of series [3] is non-small cell lung cancer cell line A549. The following applies: versus Taxotere.
Series [4] deals with gastric cancer cell line MKN-28. Description: Nude mouse xenograft trial, MKN-28.
Description: Both tumor size and body weight of each were measured from the beginning of first injection to 40 days.

By IC50 is commonly meant the concentration needed to halve the response being measured. For “[NP(MPEG550)1.50(GlyLysEt-2′-succinylpaclitaxel)0.50]n [Example 21]”, the IC50 with MCF-7 was found to be 317 ± 141 nM; with SK-Ov3, 6960 ± 142 nM; in the series on A-549 it was 1540 ± 41.8 nM; with SNU-638, 5411 ± 46.6 nM.
Consider “[NP(MPEG550)1.50(LysEt)0.2(LysEt-2′-succinylpaclitaxel)0.3]n [Example 20]”, for which the “critical micelle concentration (CMC)” value in series [1] was found to be 41 mg/L. Also, in series [2], the “degradation of polyphosphazene backbone in acidic media” value is recorded as “continuously degradable in acidic media”. Also, the IC50 amounted to 165 ± 86.5 nM in the series on MCF-7, 588 ± 47.8 nM with SK-Ov3, 170 ± 48.3 nM in the series with A-549 and 364 ± 202 nM in the series on SNU-638.
As to `CC(=O)O[C@H]1C(=O)[C@@]2(C)[C@H]([C@H](OC(=O)c3ccccc3)[C@]3(O)C[C@H](OC(=O)[C@H](O)[C@@H](NC(=O)c4ccccc4)c4ccccc4)C(C)=C1C3(C)C)[C@]1(OC(C)=O)CO[C@@H]1C[C@@H]2O` [Paclitaxel, reference compound], the IC50 in the series on MCF-7 (Homo sapiens, MCF7) stood at 3.47 ± 0.62 nM; with SK-Ov3 (Homo sapiens, SK-OV-3) it was 15.3 ± 2.6 nM; with A-549 (Homo sapiens, A549), 6.63 ± 2.84 nM; in the series on SNU-638 (Homo sapiens) it was 10.9 ± 0.9 nM.
In the case of “[NP(MPEG550)1.5(LysEt-2′-aconitic-docetaxel)0.5]n [Example 14]”, the “antitumor activity against A549 tumor” value in series [3] is reported as “even better antitumor activity than the reference Taxotere”. Besides, the “antitumor activity against MKN-28 gastric tumor” value in series [4] (10 and 20 mg/kg as docetaxel, day 1, 5, 9, 40 days, versus Taxotere 10 mg/kg) is on record as “strong antitumor activity equivalent to Taxotere”. Also, the “systemic toxicity versus Taxotere” value in series [4] (judged from body weight, MKN-28 xenograft mice) was “lower systemic toxicity”.

For the origin of these results see patent US11180615B2, “Cationic polyphosphazene compound, polyphosphazenes-drug conjugate compound and method for preparing same” (CNPHARM CO., LTD., priority 2016, dated 2021).
